# Results: patent US20200316083A1, “ANTIBACTERIAL COMPOSITIONS” (WOCKHARDT LIMITED, priority 2016, published 2020)
# How the values were obtained:
# Assay type in all cases: cell-based
# [1] = test system: E. coli 7MP producing Class A and Class C beta-lactamase enzymes; assay: Time kill study against E. coli 7MP; conditions: for Effect on bacterial count (in words): alone or in combination
# Description: (§1) In general, the antibacterial activity of compositions according to invention was studied by performing time kill studies. In a typical time kill study, the freshly grown cultures were diluted to the required cell density (initial starting inoculum) in cation adjusted Muller Hinton broth medium (BD, USA). The antibacterial agents (either alone or in combination) at the required concentrations were added into the culture-containing medium. The samples were incubated under shaking condition (120 rpm) at 37° C. Enumeration of viable bacterial count was done every 2 hour by diluting in normal saline and plating on to the Tryptic Soya Agar plates (BD, USA). The plates were incubated for 24 hours to arrive at a viable bacterial count. The results are expressed in terms of log10 CFU/ml. In general, the decrease of 1 log10 CFU/ml corresponds to 90% killing of bacteria. Similarly, 2 log10 CFU/ml reductions indicates to 99% killing of bacteria and 3 log10 CFU/ml reductions is equal to 99.9% killing of bacteria.
# [2] = test system: K. pneumoniae B-88 producing metallo beta-lactamase enzymes; assay: Time kill study against K. pneumoniae B-88; conditions: for Effect on bacterial count (in words): summary of Table 1, alone or in combination
# Description: as §1
# [3] = test system: A. baumanni 13301 producing Carbapenem hydrolysing beta-lactamase enzymes; assay: Time kill study against A. baumanni 13301; conditions: for Bacterial count (Log10 CFU/ml) 0 hours / Change in Log10 CFU/ml over 0 hour count after 24 hours / Bacterial count (Log10 CFU/ml) 2 hours / Bacterial count (Log10 CFU/ml) 4 hours / Bacterial count (Log10 CFU/ml) 6 hours / Bacterial count (Log10 CFU/ml) 8 hours / Bacterial count (Log10 CFU/ml) 24 hours: 4 mcg/ml alone; for Effect on bacterial count (in words): summary of Table 3, alone or in combination
# Description: as §1
smiles,measurement,setting,value
O=C(NNC(=O)[C@@H]1CC[C@@H]2CN1C(=O)N2OS(=O)(=O)O)[C@@H]1CCCNC1 [Compound (C)],Change in Log10 CFU/ml over 0 hour count after 24 hours,"[1]; Table 2, 2 mcg/ml alone",−3.54 Log10 CFU/ml
same,Bacterial count (Log10 CFU/ml) 2 hours,"[1]; Table 2, 2 mcg/ml alone",6.30 Log10 CFU/ml
same,Bacterial count (Log10 CFU/ml) 4 hours,"[1]; Table 2, 2 mcg/ml alone",4.93 Log10 CFU/ml
same,Bacterial count (Log10 CFU/ml) 6 hours,"[1]; Table 2, 2 mcg/ml alone",4.23 Log10 CFU/ml
same,Bacterial count (Log10 CFU/ml) 24 hours,"[1]; Table 2, 2 mcg/ml alone",3.54 Log10 CFU/ml
same,Effect on bacterial count (in words),[1]; summary of Table 2,could not reduce the bacterial count
same,Bacterial count (Log10 CFU/ml) 0 hours,[2]; 2 mcg/ml alone,7.28 Log10 CFU/ml
same,Change in Log10 CFU/ml over 0 hour count after 24 hours,[2]; 2 mcg/ml alone,1.26 Log10 CFU/ml
same,Bacterial count (Log10 CFU/ml) 2 hours,[2]; 2 mcg/ml alone,7.60 Log10 CFU/ml
same,Bacterial count (Log10 CFU/ml) 4 hours,[2]; 2 mcg/ml alone,8.26 Log10 CFU/ml
same,Bacterial count (Log10 CFU/ml) 6 hours,[2]; 2 mcg/ml alone,8.18 Log10 CFU/ml
same,Bacterial count (Log10 CFU/ml) 24 hours,[2]; 2 mcg/ml alone,8.54 Log10 CFU/ml
same,Effect on bacterial count (in words),[2],could not reduce the bacterial count
same,Bacterial count (Log10 CFU/ml) 0 hours,[3],6.88 Log10 CFU/ml
same,Change in Log10 CFU/ml over 0 hour count after 24 hours,[3],2.35 Log10 CFU/ml
same,Bacterial count (Log10 CFU/ml) 2 hours,[3],8.13 Log10 CFU/ml
same,Bacterial count (Log10 CFU/ml) 4 hours,[3],8.85 Log10 CFU/ml
same,Bacterial count (Log10 CFU/ml) 6 hours,[3],9.19 Log10 CFU/ml
same,Bacterial count (Log10 CFU/ml) 8 hours,[3],9.02 Log10 CFU/ml
same,Bacterial count (Log10 CFU/ml) 24 hours,[3],9.23 Log10 CFU/ml
same,Effect on bacterial count (in words),[3],could not reduce the bacterial count
O=C(NOC[C@@H]1CCCN1)[C@@H]1CC[C@@H]2CN1C(=O)N2OS(=O)(=O)O [Compound (D)],Change in Log10 CFU/ml over 0 hour count after 24 hours,"[1]; Table 2, 2 mcg/ml alone",0.22 Log10 CFU/ml
same,Bacterial count (Log10 CFU/ml) 2 hours,"[1]; Table 2, 2 mcg/ml alone",7.65 Log10 CFU/ml
same,Bacterial count (Log10 CFU/ml) 4 hours,"[1]; Table 2, 2 mcg/ml alone",7.30 Log10 CFU/ml
same,Bacterial count (Log10 CFU/ml) 6 hours,"[1]; Table 2, 2 mcg/ml alone",7.78 Log10 CFU/ml
same,Bacterial count (Log10 CFU/ml) 24 hours,"[1]; Table 2, 2 mcg/ml alone",7.30 Log10 CFU/ml
same,Effect on bacterial count (in words),[1]; summary of Table 2,could not reduce the bacterial count
same,Bacterial count (Log10 CFU/ml) 0 hours,[2]; 2 mcg/ml alone,7.28 Log10 CFU/ml
same,Change in Log10 CFU/ml over 0 hour count after 24 hours,[2]; 2 mcg/ml alone,1.26 Log10 CFU/ml
same,Bacterial count (Log10 CFU/ml) 2 hours,[2]; 2 mcg/ml alone,7.60 Log10 CFU/ml
same,Bacterial count (Log10 CFU/ml) 4 hours,[2]; 2 mcg/ml alone,8.26 Log10 CFU/ml
same,Bacterial count (Log10 CFU/ml) 6 hours,[2]; 2 mcg/ml alone,8.18 Log10 CFU/ml
same,Bacterial count (Log10 CFU/ml) 24 hours,[2]; 2 mcg/ml alone,8.54 Log10 CFU/ml
same,Effect on bacterial count (in words),[2],could not reduce the bacterial count
same,Bacterial count (Log10 CFU/ml) 0 hours,[3],6.88 Log10 CFU/ml
same,Change in Log10 CFU/ml over 0 hour count after 24 hours,[3],2.07 Log10 CFU/ml
same,Bacterial count (Log10 CFU/ml) 2 hours,[3],7.98 Log10 CFU/ml
same,Bacterial count (Log10 CFU/ml) 4 hours,[3],8.60 Log10 CFU/ml
same,Bacterial count (Log10 CFU/ml) 6 hours,[3],9.00 Log10 CFU/ml
same,Bacterial count (Log10 CFU/ml) 8 hours,[3],9.04 Log10 CFU/ml
same,Bacterial count (Log10 CFU/ml) 24 hours,[3],8.95 Log10 CFU/ml
same,Effect on bacterial count (in words),[3],could not reduce the bacterial count
NCCONC(=O)[C@@H]1CC[C@@H]2CN1C(=O)N2OS(=O)(=O)O [Compound (E)],Change in Log10 CFU/ml over 0 hour count after 24 hours,"[1]; Table 2, 2 mcg/ml alone",2.22 Log10 CFU/ml
same,Bacterial count (Log10 CFU/ml) 2 hours,"[1]; Table 2, 2 mcg/ml alone",8.02 Log10 CFU/ml
same,Bacterial count (Log10 CFU/ml) 4 hours,"[1]; Table 2, 2 mcg/ml alone",9.15 Log10 CFU/ml
same,Bacterial count (Log10 CFU/ml) 6 hours,"[1]; Table 2, 2 mcg/ml alone",9.11 Log10 CFU/ml
same,Bacterial count (Log10 CFU/ml) 24 hours,"[1]; Table 2, 2 mcg/ml alone",9.30 Log10 CFU/ml
same,Effect on bacterial count (in words),[1]; summary of Table 2,could not reduce the bacterial count
same,Bacterial count (Log10 CFU/ml) 0 hours,[2]; 2 mcg/ml alone,7.28 Log10 CFU/ml
same,Change in Log10 CFU/ml over 0 hour count after 24 hours,[2]; 2 mcg/ml alone,1.26 Log10 CFU/ml
same,Bacterial count (Log10 CFU/ml) 2 hours,[2]; 2 mcg/ml alone,7.60 Log10 CFU/ml
same,Bacterial count (Log10 CFU/ml) 4 hours,[2]; 2 mcg/ml alone,8.26 Log10 CFU/ml
same,Bacterial count (Log10 CFU/ml) 6 hours,[2]; 2 mcg/ml alone,8.18 Log10 CFU/ml
same,Bacterial count (Log10 CFU/ml) 24 hours,[2]; 2 mcg/ml alone,8.54 Log10 CFU/ml
same,Effect on bacterial count (in words),[2],could not reduce the bacterial count
same,Bacterial count (Log10 CFU/ml) 0 hours,[3],6.88 Log10 CFU/ml
same,Change in Log10 CFU/ml over 0 hour count after 24 hours,[3],2.16 Log10 CFU/ml
same,Bacterial count (Log10 CFU/ml) 2 hours,[3],8.04 Log10 CFU/ml
same,Bacterial count (Log10 CFU/ml) 4 hours,[3],8.74 Log10 CFU/ml
same,Bacterial count (Log10 CFU/ml) 6 hours,[3],8.90 Log10 CFU/ml
same,Bacterial count (Log10 CFU/ml) 8 hours,[3],9.20 Log10 CFU/ml
same,Bacterial count (Log10 CFU/ml) 24 hours,[3],9.04 Log10 CFU/ml
same,Effect on bacterial count (in words),[3],could not reduce the bacterial count
"CC(C)(O/N=C(\C(=O)N[C@@H]1C(=O)N2C(C(=O)[O-])=C(C[N+]3(CCNC(=O)c4ccc(O)c(O)c4Cl)CCCC3)CS[C@H]12)c1csc(N)n1)C(=O)O [Compound of Formula (I), (6R,7R)-7-[(2Z)-2-(2-amino-1,3-thiazol-4-yl)-2-{[(2-carboxypropan-2-yl)oxy]imino}acetamido]-3-({1-[2-(2-chloro-3,4-dihydroxybenzamido)ethyl]pyrrolidin-1-ium-1-yl}methyl)-8-oxo-5-thia-1-azabicyclo[4.2.0]oct-2-ene-2-carboxylate]",Change in Log10 CFU/ml over 0 hour count after 24 hours,"[1]; Table 2, 0.25 mcg/ml alone",2.12 Log10 CFU/ml
same,Change in Log10 CFU/ml over 0 hour count after 24 hours,"[1]; Table 2, 0.5 mcg/ml alone",2.12 Log10 CFU/ml
same,Bacterial count (Log10 CFU/ml) 2 hours,"[1]; Table 2, 0.25 mcg/ml alone",7.60 Log10 CFU/ml
same,Bacterial count (Log10 CFU/ml) 2 hours,"[1]; Table 2, 0.5 mcg/ml alone",7.18 Log10 CFU/ml
same,Bacterial count (Log10 CFU/ml) 4 hours,"[1]; Table 2, 0.25 mcg/ml alone",9.11 Log10 CFU/ml
same,Bacterial count (Log10 CFU/ml) 4 hours,"[1]; Table 2, 0.5 mcg/ml alone",7.74 Log10 CFU/ml
same,Bacterial count (Log10 CFU/ml) 6 hours,"[1]; Table 2, 0.25 mcg/ml alone",9.20 Log10 CFU/ml
same,Bacterial count (Log10 CFU/ml) 6 hours,"[1]; Table 2, 0.5 mcg/ml alone",9.18 Log10 CFU/ml
same,Bacterial count (Log10 CFU/ml) 24 hours,"[1]; Table 2, 0.25 mcg/ml alone",9.20 Log10 CFU/ml
same,Bacterial count (Log10 CFU/ml) 24 hours,"[1]; Table 2, 0.5 mcg/ml alone",9.20 Log10 CFU/ml
same,Change in Log10 CFU/ml over 0 hour count after 8 hours,"[1]; Table 5, 1 mcg/ml alone",1.57 Log10 CFU/ml
same,Bacterial count (Log10 CFU/ml) 2 hours,"[1]; Table 5, 1 mcg/ml alone",7.15 Log10 CFU/ml
same,Bacterial count (Log10 CFU/ml) 4 hours,"[1]; Table 5, 1 mcg/ml alone",6.60 Log10 CFU/ml
same,Bacterial count (Log10 CFU/ml) 6 hours,"[1]; Table 5, 1 mcg/ml alone",7.90 Log10 CFU/ml
same,Bacterial count (Log10 CFU/ml) 8 hours,"[1]; Table 5, 8 hours, 1 mcg/ml alone",8.65 Log10 CFU/ml
same,Effect on bacterial count (in words),[1]; summary of Table 2,could not reduce the bacterial count
same,Effect on bacterial count (in words),"[1]; summary of Table 5, throughout the duration of the study",did not reduce the bacterial count
same,Bacterial count (Log10 CFU/ml) 0 hours,[2]; 0.25 mcg/ml alone,7.28 Log10 CFU/ml
same,Bacterial count (Log10 CFU/ml) 0 hours,[2]; 0.5 mcg/ml alone,7.28 Log10 CFU/ml
same,Change in Log10 CFU/ml over 0 hour count after 24 hours,[2]; 0.25 mcg/ml alone,−0.47 Log10 CFU/ml
same,Change in Log10 CFU/ml over 0 hour count after 24 hours,[2]; 0.5 mcg/ml alone,−0.98 Log10 CFU/ml
same,Bacterial count (Log10 CFU/ml) 2 hours,[2]; 0.25 mcg/ml alone,6.74 Log10 CFU/ml
same,Bacterial count (Log10 CFU/ml) 2 hours,[2]; 0.5 mcg/ml alone,6.18 Log10 CFU/ml
same,Bacterial count (Log10 CFU/ml) 4 hours,[2]; 0.5 mcg/ml alone,5.85 Log10 CFU/ml
same,Bacterial count (Log10 CFU/ml) 6 hours,[2]; 0.25 mcg/ml alone,6.70 Log10 CFU/ml
same,Bacterial count (Log10 CFU/ml) 6 hours,[2]; 0.5 mcg/ml alone,6.30 Log10 CFU/ml
same,Bacterial count (Log10 CFU/ml) 24 hours,[2]; 0.25 mcg/ml alone,6.81 Log10 CFU/ml
same,Bacterial count (Log10 CFU/ml) 24 hours,[2]; 0.5 mcg/ml alone,6.30 Log10 CFU/ml
same,Effect on bacterial count (in words),[2],could not reduce the bacterial count
same,Bacterial count (Log10 CFU/ml) 0 hours,[3],6.88 Log10 CFU/ml
same,Change in Log10 CFU/ml over 0 hour count after 24 hours,[3],2.22 Log10 CFU/ml
same,Bacterial count (Log10 CFU/ml) 2 hours,[3],4.85 Log10 CFU/ml
same,Bacterial count (Log10 CFU/ml) 4 hours,[3],4.02 Log10 CFU/ml
same,Bacterial count (Log10 CFU/ml) 6 hours,[3],5.18 Log10 CFU/ml
same,Bacterial count (Log10 CFU/ml) 8 hours,[3],7.5 Log10 CFU/ml
same,Bacterial count (Log10 CFU/ml) 24 hours,[3],9.10 Log10 CFU/ml
same,Effect on bacterial count (in words),[3],could not reduce the bacterial count
